According to patent US8741892B2, “Compounds” (Boehringer Ingelheim International GmbH, priority 2011, dated 2014):

biological target: T1, human recombinant mGluR5 (Homo sapiens, UniProt P41594); assay: positive modulation of mGluR5, calcium based FLIPR assay; details: HEK 293 cell line expressing human recombinant mGluR5; EC50 of the modulation from peak Ca fluorescence signal after glutamate at approx. 5% basal stimulation
T1 construct: expressed in transfected cells; host or cells: HEK 293
Protocol: The positive modulation of mGluR5 is measured in a HEK 293 cell line expressing human recombinant mGluR5 and is detected with calcium based FLIPR assay. The cells are cultured with DMEM supplemented with 10% FCS, 2 μg/mL tetracycline, 100 μg/mL hygromycin and 500 μg/mL geneticin. The cell culture media is exchanged for tetracycline-free cell culture media 3-7 days before the assay. One day before the assay the cell culture medium is exchanged to DMEM without glutamine and phenol red and supplemented with 10% FCS, 100 μg/mL hygromycin and 500 μg/mL geneticin. On the assay day, the medium of the subconfluent cultures is removed and the cells are detached by addition of 2.5 ml EDTA (0.02%) per 175 cm2 culture flask for 1 minute. The cells are resuspend in Ringer solution (140 mM NaCl, 5 mM KCl, 2.5 mM CaCl2, 1.5 mM MgCl2, 5 mM Glucose, 10 mM Hepes; adjusted to pH 7.4 with NaOH), pooled and Ringer solution added to adjust the volume to 50 mL. The cell suspension is centrifuged for […] at 1500 U/min (425 g). The supernatant is removed and the cells washed a second time with 50 ml fresh Ringer solution and centrifuged again as before. The supernatant is again removed and the pellet resuspended in Ringer solution to 1,000,000 cells/ml (1×10^6 cells/mL). The cells are plated onto BD BioCoat Poly-D-Lysine 384 well plates (20.000 cells/well; 20 μl/well). The lid covered plates are then incubated until use at 37° C./10% CO2. For dye loading, 20 μl of Calcium-4 assay kit solution (prepared according to the manufacturer's description in Ringer solution) are added to the cells and the plates are incubated for […] 37° C. and then […] at room temperature.
Controls, Compound Dilution and Assay Execution:
Each assay plate contained wells with “high” and “low” controls:
Low controls 1% DMSO/ringer solution+basal glutamate activation (defined as 100% CTL).
High controls 10 μM CDPPB+basal glutamate activation (defined as 200% CTL).
Test compounds are dissolved and diluted in DMSO to 100-fold the desired concentrations. In a second step, the compounds are diluted in Ringer solution such that the compounds are 4-fold more concentrated than the desired final assay concentration. The final DMSO concentration was 1%.
20 μl of each compound solution are then transferred to the assay plate and the Ca2+ kinetic is measured to determine any intrinsic compound activity. After 5 mM incubation in the FLIPR device, the second stimulation with 20 μl of glutamate in Ringer solution (glutamate concentration adjusted to approximately 5% basal stimulation of the maximal possible glutamate effect) is added and the kinetic Ca2+ response of the wells was measured for the modulation effect.
The peak height of the Ca release related fluorescence signal (9-66) is used for the EC50. The EC50 of the modulation is calculated over a nonlinear regression with GraphPad Prism (Table 1).

T1 sequence (P41594 21-1212): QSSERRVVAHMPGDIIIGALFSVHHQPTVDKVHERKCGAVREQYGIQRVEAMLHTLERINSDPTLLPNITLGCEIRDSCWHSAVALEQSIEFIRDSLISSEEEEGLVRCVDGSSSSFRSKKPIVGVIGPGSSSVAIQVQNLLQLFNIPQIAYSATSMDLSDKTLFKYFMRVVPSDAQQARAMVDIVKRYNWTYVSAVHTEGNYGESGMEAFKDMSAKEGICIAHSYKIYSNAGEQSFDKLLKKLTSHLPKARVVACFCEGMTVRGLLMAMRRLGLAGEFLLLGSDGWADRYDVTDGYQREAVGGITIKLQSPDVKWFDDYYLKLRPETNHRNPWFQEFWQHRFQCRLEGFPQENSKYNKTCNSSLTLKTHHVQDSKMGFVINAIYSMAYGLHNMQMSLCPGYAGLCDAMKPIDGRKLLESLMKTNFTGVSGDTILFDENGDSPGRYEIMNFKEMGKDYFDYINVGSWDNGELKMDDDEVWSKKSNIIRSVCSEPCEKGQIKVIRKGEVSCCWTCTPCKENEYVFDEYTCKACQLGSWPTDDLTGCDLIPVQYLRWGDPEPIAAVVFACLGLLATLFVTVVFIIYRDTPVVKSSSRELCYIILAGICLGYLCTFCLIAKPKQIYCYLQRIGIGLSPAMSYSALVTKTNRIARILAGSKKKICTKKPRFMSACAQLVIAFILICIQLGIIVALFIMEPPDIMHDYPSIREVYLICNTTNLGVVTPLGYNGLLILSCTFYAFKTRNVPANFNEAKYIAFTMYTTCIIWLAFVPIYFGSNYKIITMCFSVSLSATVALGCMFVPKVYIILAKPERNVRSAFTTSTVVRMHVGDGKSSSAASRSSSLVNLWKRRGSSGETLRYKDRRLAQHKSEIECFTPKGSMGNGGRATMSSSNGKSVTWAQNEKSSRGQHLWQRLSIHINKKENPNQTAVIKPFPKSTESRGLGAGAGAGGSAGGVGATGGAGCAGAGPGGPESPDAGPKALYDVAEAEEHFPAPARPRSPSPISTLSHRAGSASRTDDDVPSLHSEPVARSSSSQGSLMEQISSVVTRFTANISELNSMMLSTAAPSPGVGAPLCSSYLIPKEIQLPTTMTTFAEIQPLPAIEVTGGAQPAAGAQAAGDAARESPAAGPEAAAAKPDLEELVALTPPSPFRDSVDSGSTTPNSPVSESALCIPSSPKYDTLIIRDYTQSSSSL

SMILES | EC50 [nM]
O=C(Cn1nc(-c2ccccc2)cc1-c1ccccc1)N1CCN(c2noc3ccccc23)CC1 [Example 7.01.016] | 143
CCc1cc(-c2ccc(C)c(C)c2)nn1CC(=O)N1CC=C(c2ncc(OC)cn2)CC1 [Example 7.02.076] | 293
COc1ccc(-c2cc(C(C)C)n(CC(=O)N3CCc4nc(C)sc4CC3)n2)cc1C [Example 7.02.047] | 221
Cc1ccc(NC2CCN(C(=O)Cn3nc(-c4ccccc4)cc3-c3ccccc3)CC2)c(C)c1 [Example 7.01.051] | 1440
CCCc1cc(-c2ccc(F)c(C)c2)nn1CC(=O)N1Cc2nc(C)sc2C1 [Example 7.02.034] | 42
COc1ccc(-c2cc(C(C)C)n(CC(=O)N3CCc4nc(N)sc4CC3)n2)cc1 [Example 7.02.038] | 210
CCc1cc(-c2ccc(F)cc2)nn1CC(=O)N1CCc2nc(N)sc2CC1 [Example 7.02.030] | 1760
COc1cccc(-c2cc(C3CCCCC3)n(CC(=O)N3CCc4nc(N)sc4CC3)n2)c1 [Example 7.02.052] | 297
Cc1cc(-c2cc(-c3ccccc3)n(CC(=O)N3CCc4ccccc4C3)n2)ccc1F [Example 7.01.087] | 125
O=C(Cn1nc(-c2ccccc2)cc1-c1ccccc1)N1CCc2c(Cl)cccc2C1 [Example 7.01.039] | 752
O=C(Cn1nc(-c2ccccc2)cc1-c1ccccc1)N1CCc2ncsc2CC1 [Example 7.02.004] | 689
Cc1cc(-c2cc(C3CC3)n(CC(=O)N3CCc4nc(N)sc4CC3)n2)ccc1F [Example 7.02.036] | 136
O=C(Cn1nc(-c2ccccc2)cc1-c1ccccc1)N1CCc2ncnc(-c3ccccc3)c2CC1 [Example 7.01.026] | 503
CCc1cc(-c2ccc(F)c(C)c2)nn1CC(=O)N1CCc2nc(C)sc2CC1C (stereo not shown) [Example 7.01.074] | 91
CCc1cc(-c2ccc(F)c(C)c2)nn1CC(=O)N1CCc2ccsc2CC1 [Example 7.01.071] | 233
O=C(Cn1nc(-c2ccccc2)cc1-c1ccccc1)N1CCc2c(F)ccc(F)c2C1 [Example 7.01.024] | 1160
CCc1cc(-c2cccc(C)c2)nn1CC(=O)N1CC=C(c2ncc(OC)cn2)CC1 [Example 7.02.082] | 291
CCc1cc(-c2cccc(C)c2)nn1CC(=O)N1CC=C(c2cc(OC)ncn2)CC1 [Example 7.02.093] | 120
COc1cc(C2CCN(C(=O)Cn3nc(-c4ccc(C)c(C)c4)cc3-c3ccccc3)CC2)ncn1 [Example 7.02.091] | 115
COc1ccc2c(c1)CCN(C(=O)Cn1nc(-c3ccccc3)cc1-c1ccccc1)C2 [Example 7.01.018] | 538
CCc1cc(-c2ccc(F)c(C)c2)nn1CC(=O)N1CCc2ccc(C(=O)OC)cc2CC1 [Example 7.01.070] | 128
COc1cc(C2CCN(C(=O)Cn3nc(-c4ccc(F)c(C)c4)cc3-c3ccccc3)CC2)ncn1 [Example 7.02.021] | 55
Cc1csc(N2CCN(C(=O)Cn3nc(-c4ccccc4)cc3-c3ccccc3)CC2)n1 [Example 7.01.003] | 1780
Cc1nc2c(s1)CN(C(=O)Cn1nc(-c3ccc(F)c(C)c3)cc1-c1ccccc1)C2 [Example 7.02.020] | 21
CCc1cc(-c2ccc(F)c(C)c2)nn1CC(=O)N1CCc2nc(N)sc2CC1 [Example 7.02.026] | 83
COCCCc1cc(-c2ccc(F)c(C)c2)nn1CC(=O)N1CCc2nc(N)sc2CC1 [Example 7.02.104] | 48
CCCc1cc(-c2ccc(F)c(C)c2)nn1CC(=O)N1CC=C(c2cc(OC)ncn2)CC1 [Example 7.02.070] | 40
COc1cnc(C2=CCN(C(=O)Cn3nc(-c4ccc(F)c(C)c4)cc3-c3ccccc3)CC2)nc1 [Example 7.02.101] | 14
Cc1cc(-c2cc(-c3ccccc3)n(CC(=O)N3CCc4ncc(C)n4CC3)n2)ccc1F [Example 7.01.086] | 274

Continued, values first:

EC50 [nM] | SMILES
34 | Cc1nc2c(s1)CCN(C(=O)Cn1nc(-c3ccc(C)c(F)c3)cc1-c1ccccc1)CC2 [Example 7.02.251]
236 | CCc1cc(-c2ccc(C)c(F)c2)nn1CC(=O)N1Cc2nc(C)oc2C1 [Example 7.02.245]
26 | Cc1nc2c(s1)CN(C(=O)Cn1nc(-c3ccc(C(F)F)cc3)cc1-c1ccccc1)C2 [Example 7.02.260]
85 | COc1ccc(-c2cc(-c3ccccc3)n(CC(=O)N3CCc4nc(C)sc4CC3)n2)cc1C [Example 7.02.240]
23 | CCc1nnc(N2CCN(C(=O)Cn3nc(-c4ccc(F)c(C)c4)cc3-c3ccccc3)CC2)o1 [Example 7.02.160]
111 | Cc1nc2c(s1)CN(C(=O)Cn1nc(-c3ccc(OC(F)F)cn3)cc1-c1ccccc1)C2 [Example 7.02.237]
48 | Cc1nc2c(s1)CN(C(=O)Cn1nc(-c3cccc(Cl)c3)cc1-c1ccccc1)C2 [Example 7.02.143]
21 | Cc1ccc(-c2cc(-c3ccccc3)n(CC(=O)N3CCc4nc(C)sc4CC3)n2)nc1 [Example 7.02.116]
38 | Cc1nc2c(o1)CN(C(=O)Cn1nc(-c3ccc(F)c(C)n3)cc1-c1ccccc1)C2 [Example 7.02.173]
69 | Cc1nc(N2CCN(C(=O)Cn3nc(-c4cc(C)c(F)cn4)cc3-c3ccccc3)CC2)no1 [Example 7.02.178]
7 | CCc1nc2c(o1)CN(C(=O)Cn1nc(-c3ccc(F)c(C)c3)cc1-c1ccccc1)C2 [Example 7.02.255]
6 | Cc1cccc(-c2cc(-c3ccccc3)n(CC(=O)N3CCc4nc(C)sc4CC3)n2)c1 [Example 7.02.198]
49 | Cc1nc2c(s1)CN(C(=O)Cn1nc(-c3ccc(F)c(C)c3)cc1CC(C)C)C2 [Example 7.02.121]
63 | Cc1cnc(C2CCN(C(=O)Cn3nc(-c4cccc(C#N)c4)cc3-c3ccccc3)CC2)o1 [Example 7.02.194]
184 | CCCc1cc(-c2ccc(F)c(C)n2)nn1CC(=O)N1Cc2nc(C)oc2C1 [Example 7.02.249]
334 | CCc1cc(-c2cccc(Cl)c2)nn1CC(=O)N1Cc2nc(C)sc2C1 [Example 7.02.111]

EC50 [nM] | SMILES
170 | Cc1cc(-c2cc(-c3ccccc3)n(CC(=O)N3CCc4nc(N)sc4CC3)n2)ncc1F [Example 7.02.156]
9 | CCCc1cc(-c2ccc(F)c(C)c2)nn1CC(=O)N1CCc2nc(C)oc2CC1 [Example 7.02.215]
8 | Cc1nnc(C2=CCN(C(=O)Cn3nc(-c4ccc(F)c(C)c4)cc3-c3ccccc3)CC2)o1 [Example 7.02.115]
17 | Cc1nnc(N2CCN(C(=O)Cn3nc(-c4ccc(OC(F)F)cc4)cc3-c3ccccc3)CC2)o1 [Example 7.02.225]
370 | CCc1cc(-c2ccc(F)c(C)c2)nn1CC(=O)N1CCN(c2nc(C)co2)CC1 [Example 7.02.167]
68 | Cc1nc(-c2cc(-c3ccccc3)n(CC(=O)N3CCc4nc(N)sc4CC3)n2)ccc1F [Example 7.02.171]
29 | Cc1nnc(C2=CCN(C(=O)Cn3nc(-c4ccc(C)c(C)c4)cc3-c3ccccc3)CC2)o1 [Example 7.02.114]
90 | Cc1cccc(-c2cc(-c3ccccc3)n(CC(=O)N3CCC(c4nnc(C)o4)CC3)n2)c1 [Example 7.02.197]
104 | COc1ccc(-c2cc(-c3ccccc3)n(CC(=O)N3CCN(c4noc(C)n4)CC3)n2)cc1C [Example 7.02.232]
61 | CCCc1cc(-c2ccc(F)c(C)c2)nn1CC(=O)N1CCN(c2nnc(C)o2)CC1 [Example 7.02.209]
47 | COc1cnc(C2=CCN(C(=O)Cn3nc(-c4cccc(C)c4)cc3-c3ccccc3)CC2)nc1 [Example 7.02.204]
258 | CCc1cc(-c2cccc(C#N)c2)nn1CC(=O)N1CCc2nc(N)sc2CC1 [Example 7.02.185]
19 | COc1cc(C2=CCN(C(=O)Cn3nc(-c4cccc(C)c4)cc3-c3ccccc3)CC2)ncn1 [Example 7.02.202]
132 | CCc1cc(-c2cccc(C#N)c2)nn1CC(=O)N1CCc2nc(C)sc2CC1 [Example 7.02.184]
842 | CCc1cc(-c2ccc(C)c(F)c2)nn1CC(=O)N1Cc2nc(C)sc2C1 [Example 7.02.239]
171 | COc1cc(C2CCN(C(=O)Cn3nc(-c4cccc(C)c4)cc3-c3ccccc3)CC2)ncn1 [Example 7.02.201]
